Experimental data: patent US7101885B2, “Piperazinyl-aryloxy and piperazinyl-heteroaryloxy-n-aryl lactams” (Pfizer Inc, priority 2003, dated 2006)
Structures can show the parent of a compound that is named as a salt.

melting point | Structure (SMILES)
68 to 75 °C | CN1CCN(c2ccccc2OC2CCCN(c3ccc(N4CCCC4=O)cc3)C2=O)CC1 (stereo not drawn) [Example 5, 3-[2-(4-Methyl-piperazin-1-yl)-phenoxy]-1-[4-(2-oxo-pyrrolidin-1-yl)-phenyl]-piperidin-2-one]
164 to 180 °C | CN1CCN(c2ccccc2OC2CCN(c3ccc(N4CCCC4=O)cc3)C2=O)CC1 (stereo not drawn) [Example 3, 3-[2-(4-Methyl-piperazin-1-yl)-phenoxy]-1-(4-(2-oxo-pyrrolidin-1-yl)-phenyl)-pyrrolidin-2-one]
81 to 110 °C | CN1CCN(c2ccccc2OC2CCCN(c3ccc(C(F)(F)F)cc3)C2=O)CC1 (stereo not drawn) [Example 7, 3-[2-(4-Methyl-piperazin-1-yl)-phenoxy]-1-(4-trifluoromethyl-phenyl)-piperidin-2-one]
111 to 149 °C | CN1CCN(c2ncccc2OC2CCN(c3ccc(N4CCCCC4=O)cc3)C2=O)CC1 (stereo not drawn) [Example 11, 1-(4-{3-[2-(4-Methyl-piperazin-1-yl)-pyridin-3-yloxy]-2-oxo-pyrrolidin-1-yl}-phenyl)-piperidin-2-one]
137 to 162 °C | CN1CCN(c2ccccc2OC2CCN(c3ccc(C(F)(F)F)cc3)C2=O)CC1.Cl (stereo not drawn)
71 to 88 °C | CN1CCN(c2ccccc2OC2CCCN(c3ccc(N4CCOC4=O)cc3)C2=O)CC1 (stereo not drawn) [Example 6, 3-[2-(4-Methyl-piperazin-1-yl)-phenoxy]-1-[4-(2-oxo-oxazolidin-3-yl)-phenyl]-piperidin-2-one]
220 °C | CN1CCN(c2ncccc2OC2CCN(c3ccc(-c4ccon4)cc3)C2=O)CC1 (stereo not drawn) (as salt: salt) [Example 21, 1-[4-(3-Isoxazolyl)-phenyl]-3-[2-(4-methyl-piperazin-1-yl)-pyridin-3-yloxy]-pyrrolidin-2-one]
219 to 248 °C | CN1CCN(c2ncccc2OC2CCN(c3ccc(C4CCOCC4)cc3)C2=O)CC1 (stereo not drawn) (as salt: salt) [Example 17, 3-[2-(4-Methyl-piperazin-1-yl)-pyridin-3-yloxy]-1-[4-(tetrahydro-pyran-4-yl)-phenyl]-pyrrolidin-2-one]
131 to 164 °C | CN1CCN(c2ncccc2OC2CCN(c3ccc(C(C)(C)C)cc3)C2=O)CC1 (stereo not drawn) (as salt: salt) [Example 9, 1-(4-tert-Butyl-phenyl)-3-[2-(4-methyl-piperazin-1-yl)-pyridin-3-yloxy]-pyrrolidin-2-one]
93 to 120 °C | CC(C)Oc1ccc(N2CCC(Oc3cccnc3N3CCN(C)CC3)C2=O)cc1 (stereo not drawn) (as salt: salt) [Example 15, 1-[4-(Isopropoxy)-phenyl]-3-[2-(4-methyl-piperazin-1-yl)-pyridin-3-yloxy]-pyrrolidin-2-one]
72 to 82 °C | CN1CCN(c2ncccc2OC2CCN(c3ccc(Br)cc3)C2=O)CC1 (stereo not drawn) (as salt: hydrochloride) [Example 8, 1-(4-Bromo-phenyl)-3-[2-(4-methyl-piperazin-1-yl)-pyridin-3-yloxy]-pyrrolidin-2-one]
113 to 140 °C | CN1CCN(c2ncccc2OC2CCN(c3ccc(OC(F)(F)F)cc3)C2=O)CC1 (stereo not drawn) (as salt: salt) [Example 16, 1-[4-(Trifluoromethoxy)-phenyl]-3-[2-(4-methyl-piperazin-1-yl)-pyridin-3-yloxy]-pyrrolidin-2-one]
